Values after ≈ are worked out from the molar mass of the structure shown.
How the values were obtained:
[1] = system: Staphylococcus aureus NRRL B313; assay: In vitro MIC, standard agar-dilution assay; type: cell-based; conditions: M43A phosphate salt, vancomycin free base
[2] = system: Staphylococcus aureus V41; assay: In vitro MIC, standard agar-dilution assay; type: cell-based; conditions: M43A phosphate salt, vancomycin free base
[3] = system: Staphylococcus aureus X400; assay: In vitro MIC, standard agar-dilution assay; type: cell-based; conditions: M43A phosphate salt, vancomycin free base
[4] = system: Streptococcus pyogenes C203; assay: In vitro MIC, standard agar-dilution assay; type: cell-based; conditions: M43A phosphate salt, vancomycin free base
[5] = system: Haemophilus influenzae C.L.; assay: In vitro MIC, standard agar-dilution assay; type: cell-based; conditions: M43A phosphate salt, vancomycin free base
[6] = system: Haemophilus influenzae 76; assay: In vitro MIC, standard agar-dilution assay; type: cell-based; conditions: M43A phosphate salt, vancomycin free base
Escherichia coli N10 = assay: In vitro MIC, standard agar-dilution assay; type: cell-based; conditions: M43A phosphate salt, vancomycin free base
Escherichia coli EC14 = assay: In vitro MIC, standard agar-dilution assay; type: cell-based; conditions: M43A phosphate salt, vancomycin free base
Escherichia coli TEM = assay: In vitro MIC, standard agar-dilution assay; type: cell-based; conditions: M43A phosphate salt, vancomycin free base
[7] = system: Klebsiella pneumoniae X26; assay: In vitro MIC, standard agar-dilution assay; type: cell-based; conditions: M43A phosphate salt, vancomycin free base
[8] = system: Klebsiella pneumoniae X68; assay: In vitro MIC, standard agar-dilution assay; type: cell-based; conditions: M43A phosphate salt, vancomycin free base
[9] = system: Klebsiella pneumoniae KAE; assay: In vitro MIC, standard agar-dilution assay; type: cell-based; conditions: M43A phosphate salt, vancomycin free base
[10] = system: Bacteroides corrodens 1874; assay: Susceptibility of anaerobic isolates, agar-dilution MIC; type: cell-based; conditions: read after 24 hrs incubation
Protocol: (§1) . | ^a MIC's were determined by the agardilution method; endpoints were
(§2) read after 24hrs. incubation.

Bacteroides fragilis 111 = assay: as above; type: cell-based; conditions: read after 24 hrs incubation
Protocol: as §1, §2

[11] = system: Bacteroides fragilis 1877; assay: as above; type: cell-based; conditions: read after 24 hrs incubation
Protocol: as §1, §2

[12] = system: Bacteroides fragilis 1936B; assay: as above; type: cell-based; conditions: read after 24 hrs incubation
Protocol: as §1, §2

[13] = system: Bacteroides melaninogenicus 1856/28; assay: as above; type: cell-based; conditions: read after 24 hrs incubation
Protocol: as §1, §2

[14] = system: Bacteroides melaninogenicus 2736; assay: as above; type: cell-based; conditions: read after 24 hrs incubation
Protocol: as §1, §2

[15] = system: Bacteroides thetaiotaomicron 1438; assay: as above; type: cell-based; conditions: read after 24 hrs incubation
Protocol: as §1, §2

[16] = system: Bacteroides vulgatis 1211; assay: as above; type: cell-based; conditions: read after 24 hrs incubation
Protocol: as §1, §2

[17] = system: Clostridium difficile 2994; assay: as above; type: cell-based; conditions: read after 24 hrs incubation
Protocol: as §1, §2

[18] = system: Clostridium septicum 1128; assay: as above; type: cell-based; conditions: read after 24 hrs incubation
Protocol: as §1, §2

[19] = system: Eubacterium aerofaciens 1235; assay: as above; type: cell-based; conditions: read after 24 hrs incubation
Protocol: as §1, §2

[20] = system: Fusobacterium necrophorum 6054A; assay: as above; type: cell-based; conditions: read after 24 hrs incubation
Protocol: as §1, §2

[21] = system: Fusobacterium symbiosum 1470; assay: as above; type: cell-based; conditions: read after 24 hrs incubation
Protocol: as §1, §2

[22] = system: Peptococcus asaccharolyticus 1302; assay: as above; type: cell-based; conditions: read after 24 hrs incubation
Protocol: as §1, §2

Peptococcus prevoti 1281 = assay: as above; type: cell-based; conditions: read after 24 hrs incubation
Protocol: as §1, §2

[23] = system: Peptostreptococcus anaerobius 1428; assay: as above; type: cell-based; conditions: read after 24 hrs incubation
Protocol: as §1, §2

[24] = system: Peptostreptococcus intermedius 1264; assay: as above; type: cell-based; conditions: read after 24 hrs incubation
Protocol: as §1, §2

[25] = system: Propionibacterium acnes 79; assay: as above; type: cell-based; conditions: read after 24 hrs incubation
Protocol: as §1, §2

[26] = system: Clostridium perfringens 81; type: cell-based; conditions: agar dilution, read after 24 hrs incubation
Staphylococcus aureus = assay: Experimental bacterial infection in mice, ED50; type: in vivo; conditions: subcutaneous, two doses, dose protecting 50% of animals
Streptococcus pyogenes = assay: Experimental bacterial infection in mice, ED50; type: in vivo; conditions: subcutaneous, two doses, dose protecting 50% of animals
Streptococcus pneumoniae = assay: Experimental bacterial infection in mice, ED50; type: in vivo; conditions: subcutaneous, two doses, dose protecting 50% of animals
[27] = system: Streptococcus faecium ATCC 9790; conditions: agar dilution, M43A phosphate salt, vancomycin free base
[28] = system: Streptococcus sp. group D 9960; conditions: agar dilution, M43A phosphate salt, vancomycin free base

Work on CN[C@H](CC(C)C)C(=O)N[C@H]1C(=O)N[C@@H](CC(N)=O)C(=O)N[C@H]2C(=O)N[C@H]3C(=O)N[C@H](C(=O)N[C@H](C(=O)O)c4cc(O)cc(O)c4-c4cc3ccc4O)[C@H](O)c3ccc(c(Cl)c3)Oc3cc2cc(c3O[C@@H]2O[C@H](CO)[C@@H](O)[C@H](O)[C@H]2O[C@H]2C[C@](C)(N)[C@H](O)[C@H](C)O2)Oc2ccc(cc2Cl)[C@H]1O [Vancomycin] yielded an MIC [1] of 1 µg/mL, an MIC [2] of 1 µg/mL and an MIC [3] of 1 µg/mL. The MIC [4] was 1 µg/mL, the MIC [5] was 128 µg/mL and the MIC [6] was 32 µg/mL. For the same compound, the MIC (Escherichia coli N10) was greater than 128 µg/mL, the MIC (Escherichia coli EC14) was greater than 128 µg/mL and the MIC (Escherichia coli TEM) was greater than 128 µg/mL. For the same compound, the MIC [7] was greater than 128 µg/mL, the MIC [8] was greater than 128 µg/mL and the MIC [9] was greater than 128 µg/mL. For the same compound, the MIC [10] was 32 µg/mL (≈ 22.1 µM), the MIC (Bacteroides fragilis 111) was 64 µg/mL (≈ 44.2 µM) and the MIC [11] was 32 µg/mL (≈ 22.1 µM). It also gave an MIC [12] of 32 µg/mL (≈ 22.1 µM), an MIC [13] greater than 128 µg/mL and an MIC [14] of 8 µg/mL (≈ 5.52 µM). The MIC [15] was 16 µg/mL (≈ 11 µM), the MIC [16] was 16 µg/mL (≈ 11 µM) and the MIC [17] was 2 µg/mL (≈ 1.38 µM). It also gave an MIC [18] of 4 µg/mL (≈ 2.76 µM), an MIC [19] of 16 µg/mL (≈ 11 µM) and an MIC [20] of 2 µg/mL (≈ 1.38 µM). For the same compound, the MIC [21] was 2 µg/mL (≈ 1.38 µM), the MIC [22] was 2 µg/mL (≈ 1.38 µM) and the MIC (Peptococcus prevoti 1281) was 2 µg/mL (≈ 1.38 µM). The MIC [23] was 2 µg/mL (≈ 1.38 µM), the MIC [24] was 4 µg/mL (≈ 2.76 µM) and the MIC [25] was 2 µg/mL (≈ 1.38 µM). It also gave an MIC [26] of 1 µg/mL (≈ 0.69 µM), an E50 (Staphylococcus aureus) of 1.62 mg/kg/2 and an E50 (Streptococcus pyogenes) of 1.2 mg/kg/2. It also gave an E50 (Streptococcus pneumoniae) of 1.47 mg/kg/2, an MIC [27] of 1 µg/mL and an MIC [28] of 4 µg/mL.
